US5662929A, “Therapeutic liposomal formulation” (Universite de Montreal, priority 1994, dated 1997)

Key:
[1] = Pulmonary retention / tobramycin levels after intratracheal administration in non-infected mice; type: in vivo, BALB/c mice; conditions: 200 ug intratracheal, HPLC
Protocol: Using differential scan calorimetry, the temperatures of phase transition (Tc) were calculated for the tobramycin-liposomal formulations listed in Table 1. All these formulations were then tested in vitro to assess the antibiotic kinetics of liberation from the liposomes. […] These liposomal formulations were further tested in animal model of chronic pulmonary infection to examine their antibacterial efficacy.
Lungs and kidneys were removed aseptically, weighed, and then homogenized in cold sterile PBS (40% [wt/vol]) for 30 s with a Polytron homogenizer. Tobramycin levels in both homogenized tissues and sera were measured by HPLC. Groups of three mice were used for each time value.

[2] = test system: P. aeruginosa; assay: Bactericidal effect in infected rat lung tissues, second experiment (Table 4); type: in vivo, P. aeruginosa in Sprague-Dawley rats; conditions: two doses of 240 ug
Excerpt: To evaluate the bactericidal efficacy of a liposomal aminoglycoside formulation produced according to the present invention, male, pathogen-free, Sprague-Dawley rats weighing 175 to 225 g (Charles River) were used. Chronic infection in lungs was established by intratracheal administration of 5×10^5 CFU of Pseudomonas aeruginosa PA 508 (mucoid phenotype) prepared in agar beads. It is to be pointed out that this rat model for chronic pulmonary infection is widely recognized as the most appropriate animal model for chronic pulmonary infections in human CF patients. […] The lipid mixture were DPPC:DMPG at a molar ratio of 10:1 (formula no 1) and DPPC:DMPC at a molar ratio of 15:1 (formula no 2). Sixteen hours after the last treatment, the animals were sacrificed and the entire lungs were removed aseptically, weighed and homogenized as described previously for mice. Serial 10-fold dilutions of the homogenates in cold PBS were made and spread in triplicate on proteose peptone agar plates. Identification of P. aeruginosa was confirmed by specific cultures. CFU were counted after 24-h incubations at 37° C. under 5% CO^2. Counts were expressed in log CFU per pair of lungs. PBS and PBS-liposomes were used as controls. […]

[3] = test system: Pseudomonas aeruginosa PA 508 (mucoid phenotype); assay: Bactericidal effect in chronic pulmonary infection, rat (Table 3 experiment); type: in vivo, P. aeruginosa in Sprague-Dawley rats
Protocol: Different liposomal formulations were prepared according to Example 1 and analyzed by differential scan colorimetry. Using differential scan calorimetry, the temperatures of phase transition (Tc) were calculated for the tobramycin-liposomal formulations listed in Table 1. All these formulations were then tested in vitro to assess the antibiotic kinetics of liberation from the liposomes. In addition, these formulations were tested in a non-infected mouse model as previously described (Omri et al. 1994, Antimicrob. Agents Chemother. 38:1090-1095) to assess the persistence of the liposomes in the lung. Only the DPPC/DMPG 10:1, 15:1 and DSPC. […] These liposomal formulations were further tested in animal model of chronic pulmonary infection to examine their antibacterial efficacy. […] Of note, the addition of cholesterol to the formulation described in Table 1 brought the Tc to a minimum value of 60° C. Such formulations were incompatible with modulation of gradual antibiotic liberation and suitable interactions with bacteria. Thus, in order to maintain the desired characteristic of the liposome formulation, a low rigidity of the liposomes seems required. This low rigidity can be achieved by maintaining a low temperature of phase transition (below the body temperature of the animal to which the formulation is to be administered) and avoiding the use of cholesterol in the formulation.
To evaluate the bactericidal efficacy of a liposomal aminoglycoside formulation produced according to the present invention, male, pathogen-free, Sprague-Dawley rats weighing 175 to 225 g (Charles River) were used. Chronic infection in lungs was established by intratracheal administration of 5×10^5 CFU of Pseudomonas aeruginosa PA 508 (mucoid phenotype) prepared in agar beads. It is to be pointed out that this rat model for chronic pulmonary infection is widely recognized as the most appropriate animal model for chronic pulmonary infections in human CF patients. After 3 days, three doses (600 ug) of free or liposome-encapsulated tobramycin were given intratracheally at intervals of 16 h. The lipid mixture were DPPC:DMPG at a molar ratio of 10:1 (formula no 1) and DPPC:DMPC at a molar ratio of 15:1 (formula no 2). Sixteen hours after the last treatment, the animals were sacrificed and the entire lungs were removed aseptically, weighed and homogenized as described previously for mice. Serial 10-fold dilutions of the homogenates in cold PBS were made and spread in triplicate on proteose peptone agar plates. Identification of P. aeruginosa was confirmed by specific cultures. CFU were counted after 24-h incubations at 37° C. under 5% CO^2. Counts were expressed in log CFU per pair of lungs. PBS and PBS-liposomes were used as controls.

Compound: NC[C@H]1O[C@H](O[C@H]2[C@H](O)[C@@H](O[C@H]3O[C@H](CO)[C@@H](O)[C@H](N)[C@H]3O)[C@H](N)C[C@@H]2N)[C@H](N)C[C@@H]1O [free tobramycin, tobramycin]
- Conc in lungs ([1]; 0.25 h): 43 ug/pair of lungs
- Conc in kidneys ([1]; 1 h): 25 ug/pair of kidneys
- Conc in lungs ([1]; 1 h): 11 ug/pair of lungs
- cfu/pair of lungs [2]: 1.07 × 10^6 cfu/pair of lungs
- log cfu/pair of lungs [2]: 6.03 log cfu/pair of lungs
- bacteria enumerated ([3]; free antibiotic, see below): 10^7 c.f.u.
- antibacterial efficacy in chronic pulmonary infection model (in words) ([3]; rat, compared with free antibiotic): no or little bactericidal activity
- log cfu/pair of lungs ([3]; three doses (600 ug) intratracheally at 16 h intervals, 16 h after last treatment): 7.10 log cfu/pair of lungs
- cfu/pair of lungs ([3]; three doses (600 ug) intratracheally at 16 h intervals, 16 h after last treatment, cfu counts < 30 not statistically significant): 1.25 × 10^7 cfu/pair of lungs
